18 molecules from US8269000B2, “Substituted pyrimidine and triazine compounds” (Gruenenthal GmbH, priority 2008, dated 2012) can be followed below.

In the first assay the target is T1, rat B1R (Rattus norvegicus, UniProt P97583).
T1 construct: expressed in transfected cells; host or cells: CHO K1 cells
T1 sequence (P97583 1-337): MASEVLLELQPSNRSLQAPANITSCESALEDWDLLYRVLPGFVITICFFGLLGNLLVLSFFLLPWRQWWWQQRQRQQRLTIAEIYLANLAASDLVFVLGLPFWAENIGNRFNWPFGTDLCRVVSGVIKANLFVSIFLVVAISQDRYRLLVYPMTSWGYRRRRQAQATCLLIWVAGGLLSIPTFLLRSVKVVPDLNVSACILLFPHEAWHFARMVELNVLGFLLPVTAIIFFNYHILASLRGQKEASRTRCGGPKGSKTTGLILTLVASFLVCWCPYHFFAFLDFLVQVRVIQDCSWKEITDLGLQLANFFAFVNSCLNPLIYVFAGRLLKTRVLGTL
As to the kind of experiment: FLIPR Ca2+ functional study on bradykinin receptor 1 (rB1R CHO K1 cells). It is filed as cell-based. The conditions noted are these: % inhibition rat B1R at 10 μM. As for the experimental part:
The agonistic or antagonistic activity of substances can be quantified on the bradykinin receptor 1 (B1R) of the species human and rat using ectopically expressing cell lines (CHO K1 cells) and with the aid of a Ca^2+-sensitive dye (Fluo-4) using a fluorescent imaging plate reader (FLIPR). The indication in % activation is based on the Ca^2+ signal after addition of Lys-Des-Arg^9-bradykinin (0.5 nM) or Des-Arg^9-bradykinin (100 nM). Antagonists lead to suppression of the Ca^2+ influx after the addition of the agonist. % Inhibition compared with the maximum achievable inhibition is indicated.
The agonistic or antagonistic activity of substances can be determined on the bradykinin receptor 1 (B1R) of the species human and rat using the following assay. According to this assay, the Ca^2+ influx through the channel is quantified with the aid of a Ca^2+-sensitive dye (Fluo-4 type, Molecular Probes Europe BV, Leiden, Netherlands) using a Fluorescent Imaging Plate Reader (FLIPR, Molecular Devices, Sunnyvale, USA).
Chinese hamster ovary cells (CHO K1 cells) which have been stably transfected with the human B1R gene (hB1R cells) or with the B1R gene of the rat (rB1R cells) are used. For functional studies, the cells are plated out on black 96-well plates having a clear base (BD Biosciences, Heidelberg, Germany or Greiner, Frickenhausen, Germany) in a density of 20,000-35,000 cells/well. The cells are left overnight at 37° C. and with 5% CO2 in culture medium (hB1R cells: Nutrient Mixture Ham's F12, Gibco Invitrogen GmbH, Karlsruhe, Germany or DMEM, Sigma-Aldrich, Taufkirchen, Germany; rB1R cells: D-MEM/F12, Gibco Invitrogen GmbH, Karlsruhe, Germany), with 10 vol.% FBS (fetal bovine serum, Gibco Invitrogen GmbH, Karlsruhe, Germany or PAN Biotech GmbH, Aidenbach, Germany). On the following day, the cells are loaded for 60 minutes at 37° C. with 2.13 μM Fluo-4 (Molecular Probes Europe BV, Leiden, Netherlands) in HBSS buffer (Hank's buffered saline solution, Gibco Invitrogen GmbH, Karlsruhe, Germany) […] (Sigma-Aldrich, Taufkirchen, Germany) and 10 mM HEPES (Sigma-Aldrich, Taufkirchen, Germany). The plates are then washed twice with HBSS buffer, and HBSS buffer additionally containing 0.1% BSA (bovine serum albumin; Sigma-Aldrich, Taufkirchen, Germany), 5.6 mM glucose and 0.05% gelatin (Merck KGaA, Darmstadt, Germany) is added to the plates. After incubation for a further 20 minutes at room temperature, the plates are inserted into the FLIPR for Ca^2+ measurement. Alternatively, washing is carried out with buffer A (15 mM HEPES, 80 mM NaCl, 5 mM KCl, 1.2 mM CaCl2, 0.7 mM MgSO4, 2 g/l glucose, 2.5 mM probenecid) followed by loading with buffer A with added 2.5 μM Fluo-4 and 0.025% Pluronic F127 (Sigma-Aldrich, Taufkirchen, Germany). The cells are then washed twice with buffer A and incubated for 30 minutes at room temperature with buffer A additionally containing 0.05% BSA and 0.05% gelatin and are then inserted into the FLIPR for Ca^2+ measurement. The Ca^2+-dependent fluorescence is measured before and after the addition of substances (λex=488 nm, λem=540 nm). Quantification is carried out by measuring the highest fluorescence intensity (FC, fluorescence counts) over time.
The FLIPR protocol consists of two substance additions. Test substances (10 μM) are first pipetted onto the cells and the Ca^2+ influx is compared with the control (hB1R: Lys-Des-Arg^9-bradykinin>=50 nM; rB1R: Des-Arg^9-bradykinin 10 μM). This gives the activation in %, based on the Ca^2+ signal after addition of Lys-Des-Arg^9-bradykinin (>=50 nM) or Des-Arg^9-bradykinin (10 μM). After 10-20 minutes' incubation, Lys-Des-Arg^9-bradykinin (hB1R) or Des-Arg^9-bradykinin (rB1R) is applied in the concentration of the EC80, and the influx of Ca^2+ is likewise determined. Antagonists lead to suppression of the Ca^2+ influx. The % inhibition compared with the maximum achievable inhibition is calculated. […]
For `COc1cc(C)c(S(=O)(=O)N2CCC[C@@H]2COc2nccc(N3CCC(CNC(=O)c4ccncc4)(N4CCN(C)CC4)CC3)n2)c(C)c1` [G_CC-054, N-[[1-[2-[[(2R)-1-(4-methoxy-2,6-dimethylphenyl)sulfonyl-2-pyrrolidinyl)methoxy]-4-pyrimidinyl]-4-(4-methyl-1-piperazinyl)-4-pipendinyl]methyl]-4-pyridinecarboxamide], the “% inh. (rat B1R) 10 μM” value came out at 80%. Same read-out and setting: to `COc1cc(C)c(S(=O)(=O)N2CCC[C@H]2COc2ccnc(N3CCN(CC4CCN(C)CC4)CC3)n2)c(C)c1` [H_CC-012, 4-[[(2S)-1-(4-methoxy-2,6-dimethylphenyl)sulfonyl-2-pyrrolidinyl]methoxy]-2-[4-[(1-methyl-4-pipendinyl)methyl]-1-piperazinyl]pyrimidine] belongs 93%; to `COc1cc(C)c(S(=O)(=O)N2CCCC(Oc3nccc(N4CCC(CCN5CCCCC5)CC4)n3)C2)c(C)c1` (stereo not drawn) [G_CC-027], 63%; to `COc1cc(C)c(S(=O)(=O)N2CCC[C@@H]2COc2ccnc(N3CCCN(Cc4ccccn4)CC3)n2)c(C)c1` [H_CC-043, 1-[4-[[(2R)-1-[(4-methoxy-2,6-dimethyl-phenyl)sulfonyl]-pyrrolidin-2-yl]-methoxy]-pyrimidin-2-yl]-4-(pyridin-2-yl-methyl)-[1,4]diazepam], 80%. Still for that read-out and setting: to `COc1cc(C)c(S(=O)(=O)N2CCCCC2COc2ccnc(N3CCN(c4ncccn4)CC3)n2)c(C)c1` (stereo not drawn) [H_CC-004, 4-[[1-(4-methoxy-2,6-dimethylphenyl)sulfonyl-2-pipendinyl]methoxy]-2-[4-(2-pyrimidinyl)-1-piperazinyl]pyrimidine] belongs 57%.

The assay is the same for the next values; noted with them: CHO-K1, % inhibition rat B1R at 10 μM, read-out: % inh. (rat B1R) 10 μM.
With `CCCCC1(N(C)C)CCN(c2ccnc(OC[C@@H]3Cc4ccccc4N3S(=O)(=O)c3c(C)cc(OC)cc3C)n2)CC1` [G_CC-093, [4-butyl-1-[2-[[(2S)-1-[(4-methoxy-2,6-dimethyl-phenyl)sulfonyl]-2,3-dihydro-1H-indol-2-yl]-methoxy]-pyrimidin-4-yl]-piperidin-4-yl]-dimethyl-amine], the inhibition at 10 µM is 91%. `COc1cc(C)c(S(=O)(=O)N(C)CCOc2nccc(N3CCN(c4ccc(F)cc4)CC3)n2)c(C)c1` [G_CC-005, N-[2-[[4-[4-(4-fluorophenyl)-1-piperazinyl]-2-pyrimidinyl]oxy]ethyl]-4-methoxy-N,2,6-trimethylbenzenesulfonamide]: the inhibition at 10 µM is 81%.

Regarding `CCCCC1(N(C)C)CCN(CCN(C)c2nccc(OC3CCCN(S(=O)(=O)c4c(C)cc(OC)cc4C)C3)n2)CC1` (stereo not drawn) [H_CC-053, 2-(4-butyl-4-dimethylamino-piperidin-1-yl)-ethyl-[4-[1-[(4-methoxy-2,6-dimethyl-phenyl)sulfonyl]-piperidin-3-yl]oxy-pyrimidin-2-yl]-methyl-amine], the inhibition at 10 µM was found to be 95%.

Take `COc1cc(C)c(S(=O)(=O)N2CCC[C@H]2COc2nccc(N3CCC4(CC3)C(=O)NCC4c3cccc(C(F)(F)F)c3)n2)c(C)c1` (stereo partly drawn) [G_CC-049, 8-[2-[[(2S)-1-(4-methoxy-2,6-dimethylphenyl)sulfonyl-2-pyrrolidinyl]methoxy]-4-pyrimidinyl]-1-[3-(trifluoromethyl)phenyl]-3,8-diazaspiro[4.5]decan-4-one]: the inhibition at 10 µM stood at 72%.

With `CCCCC1(N(C)C)CCN(CCN(C)c2nccc(OCC3CCCCN3S(=O)(=O)c3c(C)cc(OC)cc3C)n2)CC1` (stereo not drawn) [H_CC-045, 2-(4-butyl-4-dimethylamino-piperidin-1-yl)-ethyl-[4-[[1-[(4-methoxy-2,6-dimethyl-phenyl)sulfonyl]-piperidin-2-yl]-methoxy]-pyrimidin-2-yl]-methyl-amine], the inhibition at 10 µM was determined as 96%. Same read-out and setting: next, `COc1cc(C)c(S(=O)(=O)N2CCC[C@H]2COc2ccnc(N3CCC4(CCN(Cc5ccccc5)C4)C3)n2)c(C)c1` (stereo partly drawn) [H_CC-023, 3-benzyl-7-[4-[[(2S)-1-(4-methoxy-2,6-dimethylphenyl)sulfonyl-2-pyrrolidinyl]methoxy]-2-pyrimidinyl]-3,7-diazaspiro[4.4]nonane]: 76%; `CCCCC1(N(C)C)CCN(c2ccnc(OCCN(C)S(=O)(=O)c3c(C)cc(OC)cc3C)n2)CC1` [G_CC-089, N-[2-[4-(4-butyl-4-dimethylamino-piperidin-1-yl)-pyrimidin-2-yl]oxy-ethyl]-4-methoxy-N,2,6-trimethyl-benzenesulfonic acid amide]: 93%. Still for that read-out and setting: to `COc1cc(C)c(S(=O)(=O)N(C)CCOc2nccc(N(C)CCN3CCC(c4ccccc4)(N4CCCC4)CC3)n2)c(C)c1` [G_CC-119, 4-methoxy-N,2,6-trimethyl-N-[2-[4-[methyl-[2-(4-phenyl-4-pyrrolidin-1-yl-piperidin-1-yl)-ethyl]-amino]-pyrimidin-2-yl]oxy-ethyl]benzenesulfonic acid amide] belongs 79%. The same measure, in the same setting: next, `COc1cc(C)c(S(=O)(=O)N2CCCCC2COc2ccnc(N(C)CCN3CCC(c4ccccc4)(N(C)C)CC3)n2)c(C)c1` (stereo not drawn) [H_CC-044, 2-(4-dimethylamino-4-phenyl-piperidin-1-yl)-ethyl-[4-[[1-[(4-methoxy-2,6-dimethyl-phenyl)sulfonyl]-piperidin-2-yl]-methoxy]-pyrimidin-2-yl]-methyl-amine]: 102%; `COc1cc(C)c(S(=O)(=O)N2c3ccccc3C[C@H]2COc2nccc(N(C)CCCN3CCC(c4ccccc4)(N(C)C)CC3)n2)c(C)c1` [G_CC-076, 3-(4-dimethylamino-4-phenyl-piperidin-1-yl)-propyl-[2-[[(2S)-1-[(4-methoxy-2,6-dimethyl-phenyl)sulfonyl]-2,3-dihydro-1H-indol-2-yl]-methoxy]-pyrimidin-4-yl]-methyl-amine]: 105%; `COc1cc(C)c(S(=O)(=O)N(C)CCOc2nccc(N3CCC4(CCN(Cc5ccccc5)C4)C3)n2)c(C)c1` (stereo not drawn) [G_CC-028, N-[2-[[4-(3-benzyl-3,7-diazaspiro[4.4]nonan-7-yl)-2-pyrimidinyl]oxy]ethyl]-4-methoxy-N,2,6-trimethylbenzenesulfonamide]: 104%.

Regarding `COc1cc(C)c(S(=O)(=O)N2CCC[C@H]2COc2nccc(N3CCC(N4CCN(C)CC4)CC3)n2)c(C)c1` [G_CC-017, 2-[[(2S)-1-(4-methoxy-2,6-dimethylphenyl)sulfonyl-2-pyrrolidinyl]methoxy]-4-[4-(4-methyl-1-piperazinyl)-1-piperidinyl]pyrimidine], the inhibition at 10 µM stood at 98%. Same read-out and setting: to `CCCCC1(N(C)C)CCN(CCN(C)c2ccnc(OC[C@@H]3Cc4ccccc4N3S(=O)(=O)c3c(C)cc(OC)cc3C)n2)CC1` [G_CC-097, 2-(4-butyl-4-dimethylamino-piperidin-1-yl)-ethyl-[2-[[(2S)-1-[(4-methoxy-2,6-dimethyl-phenyl)sulfonyl]-2,3-dihydro-1H-indol-2-yl]-methoxy]-pyrimidin-4-yl]-methyl-amine] belongs 101%.
